# Assays:
# [1] = tested on: human ovarian cancer cell A2780; experiment: proliferation inhibitory activity against A2780 cells (CellTiter-Glo); format: cell-based; conditions: A2780, 72 h, 1 μM test compound, 3 days of culture, read-out: proliferation inhibitory rate (%) of A2780 cells
# Protocol: The proliferation inhibitory activity of the compound of the present invention against human ovarian cancer cell A2780 was evaluated by the following method.
# Human ovarian cancer cells A2780 were seeded in a 384 well culture plate at 1000 cells in 30 μL of medium per well by using RPMI-1640 medium (Wako Pure Chemical Industries, Ltd.) containing 10% fetal bovine serum and penicillin/streptomycin. The next day, 10 μL of RPMI-1640 medium containing the test compound was added to the cells. After 3 days of culture, 20 μL of CellTiter-Glo Luminescent Cell Viability Assay solution (Promega, Fitchburg, Wis., US) was added. The luminescence signal was measured using EnVision (PerkinElmer, Waltham, Mass., US) and the inhibitory rate (%) of the test compound was calculated with a well free of seeding of cell as 100% inhibition.
# human PRS protein = biological target: T1, human PRS protein (Homo sapiens, UniProt P07814); experiment: PRS inhibitory activity (ATP/[32P]pyrophosphate exchange enzyme reaction); format: biochemical; conditions: 300 nM test compound; recombinant human PRS (EPRS 998-1512); read-out: inhibitory rate (%) of PRS
# T1 construct: to construct His-Avi-hEPRS (998-1512) expression plasmid; His tag (N); Avi tag (N); TEV cleavage site (ENLYFQ/GS, encoded by forward primer hEPRS-TEV-NheF) (N); made in house; host or cells: E. coli BL21(DE3)
# T1 sequence (P07814 998-1512): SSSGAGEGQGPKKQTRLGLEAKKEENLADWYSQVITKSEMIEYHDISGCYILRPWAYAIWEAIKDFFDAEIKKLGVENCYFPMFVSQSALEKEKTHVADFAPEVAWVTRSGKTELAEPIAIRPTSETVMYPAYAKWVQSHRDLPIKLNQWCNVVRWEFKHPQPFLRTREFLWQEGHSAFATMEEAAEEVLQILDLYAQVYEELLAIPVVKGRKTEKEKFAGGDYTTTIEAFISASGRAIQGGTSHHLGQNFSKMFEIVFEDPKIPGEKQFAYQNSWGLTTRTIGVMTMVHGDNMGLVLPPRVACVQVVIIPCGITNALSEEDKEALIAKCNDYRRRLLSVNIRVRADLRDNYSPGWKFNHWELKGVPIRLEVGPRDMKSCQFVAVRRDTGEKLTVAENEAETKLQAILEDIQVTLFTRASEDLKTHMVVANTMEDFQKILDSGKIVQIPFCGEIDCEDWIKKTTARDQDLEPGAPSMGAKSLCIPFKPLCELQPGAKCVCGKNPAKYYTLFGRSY
# Procedure, shortened: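 His-Avi-tagged human EPRS catalytic domain (998-1512), E. coli-expressed, was preincubated 60 min with compound (enzyme added as 40 nM solution) in Tris pH 7.5, KCl, DTT, Tween 20 and MgCl2. The substrate solution contained 300 μM ATP, 160 μM L-proline, and 400 μM pyrophosphate with [32P]pyrophosphate; reaction ran 30 min at room temperature. Charcoal-captured label was counted, with enzyme-free wells taken as 100% inhibition.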
inhibition at 0.3 µM (human PRS protein),SMILES,inhibition at 1 µM [1]
100%,"Cc1cc(-c2cccc(CC(=O)Nc3cc(N4CC[C@@](C#N)(C5CC5)C4=O)ccn3)c2)sn1 [Example 48, N-(4-((3S)-3-cyano-3-cyclopropyl-2-oxopyrrolidin-1-yl)pyridin-2-yl)-2-(3-(3-methyl-1,2-thiazol-5-yl)phenyl)acetamide]",61%
99%,"N#C[C@@]1(C2CC2)CCN(c2ccnc(NC(=O)Cc3cccc(-c4cnsc4)c3)c2)C1=O [Example 50, N-(4-((3S)-3-cyano-3-cyclopropyl-2-oxopyrrolidin-1-yl)pyridin-2-yl)-2-(3-(1,2-thiazol-4-yl)phenyl)acetamide]",78%
99%,"Cn1ccc(-c2cccc(CC(=O)Nc3cc(N4CC[C@@](C#N)(C5CC5)C4=O)ccn3)c2)cc1=O [Example 51, N-(4-((3S)-3-cyano-3-cyclopropyl-2-oxopyrrolidin-1-yl)pyridin-2-yl)-2-(3-(1-methyl-2-oxo-1,2-dihydropyridin-4-yl)phenyl)acetamide]",52%
99%,"Cc1cc(N2CC[C@@](C#N)(C3CC3)C2=O)cc(NC(=O)Cc2cc(F)cc(-c3cnn(C)c3)c2)n1 [Example 52, N-(4-((3S)-3-cyano-3-cyclopropyl-2-oxopyrrolidin-1-yl)-6-methylpyridin-2-yl)-2-(3-fluoro-5-(1-methyl-1H-pyrazol-4-yl)phenyl)acetamide]",97%
100%,"Cn1cc(-c2ccc(F)c(CC(=O)Nc3cc(N4CC[C@@](C#N)(C5CC5)C4=O)ccn3)c2)cn1 [Example 53, N-(4-((3S)-3-cyano-3-cyclopropyl-2-oxopyrrolidin-1-yl)pyridin-2-yl)-2-(2-fluoro-5-(1-methyl-1H-pyrazol-4-yl)phenyl)acetamide]",82%
99%,"CC(C)(C)OC(=O)n1cc(-c2cccc(CC(=O)Nc3cc(N4CC[C@@](C#N)(C5CC5)C4=O)ccn3)c2)cn1 [Example 55, tert-butyl 4-(3-(2-((4-((3S)-3-cyano-3-cyclopropyl-2-oxopyrrolidin-1-yl)pyridin-2-yl)amino)-2-oxoethyl)phenyl)-1H-pyrazole-1-carboxylate]",67%
98%,"N#C[C@@]1(C2CC2)CCN(c2ccnc(NC(=O)Cc3cccc(-c4cn[nH]c4)c3)c2)C1=O [Example 56, N-(4-((3S)-3-cyano-3-cyclopropyl-2-oxopyrrolidin-1-yl)pyridin-2-yl)-2-(3-(1H-pyrazol-4-yl)phenyl)acetamide]",64%
99%,"Cc1cc(N2CC[C@@](C#N)(C3CC3)C2=O)cc(NC(=O)Cc2cc(F)cc(-c3cn(C)nn3)c2)n1 [Example 57, N-(4-((3S)-3-cyano-3-cyclopropyl-2-oxopyrrolidin-1-yl)-6-methylpyridin-2-yl)-2-(3-fluoro-5-(1-methyl-1H-1,2,3-triazol-4-yl)phenyl)acetamide]",94%
99%,"N#C[C@@]1(C2CC2)CCN(c2ccnc(NC(=O)Cc3cccc(-c4cnn(CC(F)(F)F)c4)c3)c2)C1=O [Example 58, N-(4-((3S)-3-cyano-3-cyclopropyl-2-oxopyrrolidin-1-yl)pyridin-2-yl)-2-(3-(1-(2,2,2-trifluoroethyl)-1H-pyrazol-4-yl)phenyl)acetamide]",75%
93%,"Cc1cc(N2CC[C@@](C#N)(C3CC3)C2=O)cc(NC(=O)Cc2cc(-c3cnn(C)c3)cc(C(F)(F)F)c2)n1 [Example 59, N-(4-((3S)-3-cyano-3-cyclopropyl-2-oxopyrrolidin-1-yl)-6-methylpyridin-2-yl)-2-(3-(1-methyl-1H-pyrazol-4-yl)-5-(trifluoromethyl)-phenyl)acetamide]",51%
99%,"Cc1cc(N2CC[C@@](C#N)(C3CC3)C2=O)cc(NC(=O)Cc2cc(F)cc(-c3ccc(=O)n(C)c3)c2)n1 [Example 60, N-(4-((3S)-3-cyano-3-cyclopropyl-2-oxopyrrolidin-1-yl)-6-methylpyridin-2-yl)-2-(3-fluoro-5-(1-methyl-6-oxo-1,6-dihydropyridin-3-yl)phenyl)acetamide]",97%
99%,"Cn1cc(-c2cccc(CC(=O)Nc3cc(N4CC[C@@](C#N)(C5CC5)C4=O)cc(F)n3)c2)cn1 [Example 63, N-(4-((3S)-3-cyano-3-cyclopropyl-2-oxopyrrolidin-1-yl)-6-fluoropyridin-2-yl)-2-(3-(1-methyl-1H-pyrazol-4-yl)phenyl)acetamide]",88%
99%,"N#C[C@@]1(C2CC2)CCN(c2ccnc(NC(=O)Cc3cccc(-c4cnn(CC5CC5)c4)c3)c2)C1=O [Example 64, N-(4-((3S)-3-cyano-3-cyclopropyl-2-oxopyrrolidin-1-yl)pyridin-2-yl)-2-(3-(1-(cyclopropylmethyl)-1H-pyrazol-4-yl)phenyl)acetamide]",79%
95%,"Cn1cc(-c2cccc(CC(=O)Nc3cc(N4CC[C@@](C#N)(C5CC5)C4=O)cc(C(F)F)n3)c2)cn1 [Example 65, N-(4-((3S)-3-cyano-3-cyclopropyl-2-oxopyrrolidin-1-yl)-6-(difluoromethyl)pyridin-2-yl)-2-(3-(1-methyl-1H-pyrazol-4-yl)phenyl)acetamide]",75%
99%,"N#C[C@@]1(C2CC2)CCN(c2ccnc(NC(=O)Cc3cccc(-c4cnn(C5CCCC5)c4)c3)c2)C1=O [Example 66, N-(4-((3S)-3-cyano-3-cyclopropyl-2-oxopyrrolidin-1-yl)pyridin-2-yl)-2-(3-(1-cyclopentyl-1H-pyrazol-4-yl)phenyl)acetamide]",80%
100%,"N#C[C@@]1(C2CC2)CCN(c2ccnc(NC(=O)Cc3cccc(-c4cnn(CCO)c4)c3)c2)C1=O [Example 67, N-(4-((3S)-3-cyano-3-cyclopropyl-2-oxopyrrolidin-1-yl)pyridin-2-yl)-2-(3-(1-(2-hydroxyethyl)-1H-pyrazol-4-yl)phenyl)acetamide]",77%
98%,"CC(C)Cn1cc(-c2cccc(CC(=O)Nc3cc(N4CC[C@@](C#N)(C5CC5)C4=O)ccn3)c2)cn1 [Example 68, N-(4-((3S)-3-cyano-3-cyclopropyl-2-oxopyrrolidin-1-yl)pyridin-2-yl)-2-(3-(1-isobutyl-1H-pyrazol-4-yl)phenyl)acetamide]",51%
99%,"COCCn1cc(-c2cccc(CC(=O)Nc3cc(N4CC[C@@](C#N)(C5CC5)C4=O)ccn3)c2)cn1 [Example 70, N-(4-((3S)-3-cyano-3-cyclopropyl-2-oxopyrrolidin-1-yl)pyridin-2-yl)-2-(3-(1-(2-methoxyethyl)-1H-pyrazol-4-yl)phenyl)acetamide]",58%
99%,"N#CCCCn1cc(-c2cccc(CC(=O)Nc3cc(N4CC[C@@](C#N)(C5CC5)C4=O)ccn3)c2)cn1 [Example 71, N-(4-((3S)-3-cyano-3-cyclopropyl-2-oxopyrrolidin-1-yl)pyridin-2-yl)-2-(3-(1-(3-cyanopropyl)-1H-pyrazol-4-yl)phenyl)acetamide]",69%
98%,"N#C[C@@]1(C2CC2)CCN(c2ccnc(NC(=O)Cc3cccc(-c4cnn(CC5CCC5)c4)c3)c2)C1=O [Example 72, N-(4-((3S)-3-cyano-3-cyclopropyl-2-oxopyrrolidin-1-yl)pyridin-2-yl)-2-(3-(1-(cyclobutylmethyl)-1H-pyrazol-4-yl)phenyl)acetamide]",65%
98%,"COCCCn1cc(-c2cccc(CC(=O)Nc3cc(N4CC[C@@](C#N)(C5CC5)C4=O)ccn3)c2)cn1 [Example 74, N-(4-((3S)-3-cyano-3-cyclopropyl-2-oxopyrrolidin-1-yl)pyridin-2-yl)-2-(3-(1-(3-methoxypropyl)-1H-pyrazol-4-yl)phenyl)acetamide]",62%

# Reference: US10800754B2, “Heterocyclic amide compound” (TAKEDA PHARMACEUTICAL COMPANY LIMITED, priority 2016, dated 2020)
